Measured values reported in article PMC3594701 (Journal of acquired immune deficiency syndromes (1999), 2011).
“Also recorded” adds a separate entry of the source.

Tests used:
[1] = IC accumulation: ratio of IC drug to drug in plasma; details: human, oral, GM IC to Plasma Ratio
[2] = Steady-state plasma pharmacokinetics; type: in vivo, human; details: for Cmax / concentration at 24 h: human; for Cmax: GM Cmax; for concentration at 24 h: GM Ctrough
[3] = Steady-state intracellular; type: in vivo, human; details: IC (PBMC); for GM AUC (darunavir, ritonavir) / GM AUC: AUC0–24; for Cmax / concentration at 24 h: human, oral; for Cmax: GM Cmax; for concentration at 24 h: GM Ctrough
[4] = PBMC (intracellular)/plasma, Cmax, group 1, period 3 (day 49): darunavir/ritonavir 800/100 mg once daily, without raltegravir
[5] = PBMC (intracellular)/plasma, Cmax, group 2, period 3 (day 49): darunavir/ritonavir 800/100 mg once daily, without raltegravir
[6] = PBMC (intracellular)/plasma, Ctrough, group 1, period 3 (day 49): darunavir/ritonavir 800/100 mg once daily, without raltegravir
[7] = PBMC (intracellular)/plasma, Ctrough, group 2, period 3 (day 49): darunavir/ritonavir 800/100 mg once daily, without raltegravir
[8] = intracellular (PBMC) / plasma, AUC (darunavir, ritonavir), group 1, period 2 (day 35): darunavir/ritonavir 800/100 mg once daily + raltegravir 400 mg twice daily
[9] = intracellular (PBMC) / plasma, AUC (darunavir, ritonavir), group 2, period 2 (day 35): darunavir/ritonavir 800/100 mg once daily + raltegravir 800 mg once daily
[10] = intracellular (PBMC) / plasma, AUC, group 1, period 3 (day 49): darunavir/ritonavir 800/100 mg once daily, without raltegravir
[11] = intracellular (PBMC) / plasma, AUC, group 2, period 3 (day 49): darunavir/ritonavir 800/100 mg once daily, without raltegravir
[12] = intracellular (PBMC) / plasma, Cmax, group 1, period 2 (day 35): raltegravir 400 mg twice daily + darunavir/ritonavir 800/100 mg once daily
[13] = intracellular (PBMC) / plasma, Cmax, group 2, period 2 (day 35): raltegravir 800 mg once daily + darunavir/ritonavir 800/100 mg once daily
[14] = intracellular (PBMC) / plasma, Ctrough, group 1, period 2 (day 35): raltegravir 400 mg twice daily + darunavir/ritonavir 800/100 mg once daily
[15] = intracellular (PBMC) / plasma, Ctrough, group 2, period 2 (day 35): raltegravir 800 mg once daily + darunavir/ritonavir 800/100 mg once daily
[16] = group 1, period 2 (day 35): raltegravir 400 mg twice daily + darunavir/ritonavir 800/100 mg once daily
[17] = group 1, period 3 (day 49): darunavir/ritonavir 800/100 mg once daily, without raltegravir
[18] = group 2, period 3 (day 49): darunavir/ritonavir 800/100 mg once daily, without raltegravir
[19] = oral, group 1, period 3 (day 49): darunavir/ritonavir 800/100 mg once daily, without raltegravir
[20] = oral, group 2, period 3 (day 49): darunavir/ritonavir 800/100 mg once daily, without raltegravir
[21] = PBMC, group 2, period 2 (day 35): raltegravir 800 mg once daily + darunavir/ritonavir 800/100 mg once daily

Question: What does the source list for CC(C)CN(C[C@@H](O)[C@H](Cc1ccccc1)NC(=O)O[C@H]1CO[C@H]2OCC[C@H]21)S(=O)(=O)c1ccc(N)cc1 [Darunavir, darunavir]?
Answer: Kp [1, 4]: 6.8; Kp [1, 5]: 4.8; Kp [1, 6]: 4.8; Kp [1, 7]: 4.4; Kp [1, 8]: 5.3; Kp [1, 9]: 5.6; Kp [1, 10]: 5.3; Kp [1, 11]: 4.9; Kp [1, 12]: 6.8; Kp [1, 13]: 6.3; Kp [1, 14]: 4.4; Kp at 24 h [1, 15]: 4.3

Question: What does the source list for CC(C)c1nc(CN(C)C(=O)N[C@H](C(=O)N[C@@H](Cc2ccccc2)C[C@H](O)[C@H](Cc2ccccc2)NC(=O)OCc2cncs2)C(C)C)cs1 [Ritonavir, ritonavir]?
Answer: GM AUC (darunavir, ritonavir) ([2]; group 1, period 2 (day 35): darunavir/ritonavir 800/100 mg once daily + raltegravir 400 mg twice daily, AUC0–24): 4299 ng/h/mL; GM AUC (darunavir, ritonavir) ([2]; group 1, period 2 (day 35): darunavir/ritonavir 800/100 mg once daily + raltegravir 400 mg twice daily, AUC0–24, listed as ritonavir): 4299 (3823–5176) ng·h^−1·mL^−1; GM Ctrough [2, 16]: 0.048 µg/mL; GM Ctrough [2, 17]: 0.044 µg/mL; GM AUC ([2]; group 1, period 3 (day 49): darunavir/ritonavir 800/100 mg once daily, without raltegravir, AUC0–24): 4568 ng/h/mL; GM AUC ([2]; group 1, period 3 (day 49): darunavir/ritonavir 800/100 mg once daily, without raltegravir, AUC0–24, listed as ritonavir): 4568 (4070–5427) ng·h^−1·mL^−1; GM AUC (darunavir, ritonavir) ([2]; group 2, period 2 (day 35): darunavir/ritonavir 800/100 mg once daily + raltegravir 800 mg once daily, AUC0–24): 4359 ng/h/mL; GM AUC (darunavir, ritonavir) ([2]; group 2, period 2 (day 35): darunavir/ritonavir 800/100 mg once daily + raltegravir 800 mg once daily, AUC0–24, listed as ritonavir): 4359 (3816–5443) ng·h^−1·mL^−1; GM Ctrough ([2]; group 2, period 2 (day 35): raltegravir 800 mg once daily + darunavir/ritonavir 800/100 mg once daily): 0.034 µg/mL; GM Ctrough [2, 18]: 0.036 µg/mL; GM AUC ([2]; group 2, period 3 (day 49): darunavir/ritonavir 800/100 mg once daily, without raltegravir, AUC0–24): 4516 ng/h/mL; GM AUC ([2]; group 2, period 3 (day 49): darunavir/ritonavir 800/100 mg once daily, without raltegravir, AUC0–24, listed as ritonavir): 4516 (3798–5986) ng·h^−1·mL^−1; Cmax [2, 16]: 0.483 µg/mL; Cmax [2, 19]: 0.528 µg/mL; Cmax [2, 20]: 0.527 µg/mL; concentration at 24 h [2, 19]: 0.044 µg/mL; concentration at 24 h ([2]; oral, group 2, period 2 (day 35): raltegravir 800 mg once daily + darunavir/ritonavir 800/100 mg once daily): 0.034 µg/mL; concentration at 24 h [2, 20]: 0.036 µg/mL; PK exposure parameters with versus without raltegravir ([2]; periods 2 and 3): comparable; also recorded: not affected; GM AUC (darunavir, ritonavir) ([3]; group 1, period 2 (day 35): darunavir/ritonavir 800/100 mg once daily + raltegravir 400 mg twice daily): 33,789 ng·h^−1·mL^−1; GM Ctrough [3, 16]: 0.458 µg/mL; GM AUC [3, 17]: 36,769 ng·h^−1·mL^−1; GM AUC (darunavir, ritonavir) ([3]; group 2, period 2 (day 35): darunavir/ritonavir 800/100 mg once daily + raltegravir 800 mg once daily): 28,683 ng·h^−1·mL^−1; GM AUC [3, 18]: 27,652 ng·h^−1·mL^−1; Cmax ([3]; PBMC (intracellular), group 1, period 3 (day 49): darunavir/ritonavir 800/100 mg once daily, without raltegravir): 4.04 µg/mL; Cmax ([3]; PBMC (intracellular), group 2, period 3 (day 49): darunavir/ritonavir 800/100 mg once daily, without raltegravir): 2.61 µg/mL; Cmax ([3]; PBMC, group 1, period 2 (day 35): raltegravir 400 mg twice daily + darunavir/ritonavir 800/100 mg once daily): 3.88 µg/mL; Cmax [3, 21]: 3.29 µg/mL; concentration at 24 h ([3]; PBMC, group 1, period 3 (day 49): darunavir/ritonavir 800/100 mg once daily, without raltegravir): 0.478 µg/mL; concentration at 24 h [3, 21]: 0.329 µg/mL; concentration at 24 h ([3]; PBMC, group 2, period 3 (day 49): darunavir/ritonavir 800/100 mg once daily, without raltegravir): 0.369 µg/mL; Kp [1, 4]: 13.5; Kp [1, 5]: 5.2; Kp [1, 6]: 11.7; Kp [1, 7]: 10.6; Kp [1, 8]: 10; Kp [1, 9]: 6.9; Kp [1, 10]: 9.5; Kp [1, 11]: 6.5; Kp [1, 12]: 13.8; Kp [1, 13]: 5.7; Kp [1, 14]: 12; Kp at 24 h [1, 15]: 10.1
